Data taken from the supplement of paper PMC10307832.

Assays:
Experiment in all cases: relative viability (nuclei count vs DMSO), 5 days (fraction); higher = more cells survive
[1] = compound: CC1=CC(=CC=C1)NC2=NC(=CS2)C3=CC=NC=C3 + CC(=O)Nc1cccc(-n2c(=O)n(C3CC3)c(=O)c3c(Nc4ccc(I)cc4F)n(C)c(=O)c(C)c32)c1 [Trametinib] (partner 0.02 µM)
Outline: (§1)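 Relative viability divides the nuclei count in treated wells by that in vehicle wells. Lung cancer cell lines were seeded in 1536-well plates, dosed by pin tool the next day, and fixed and stained after 5 days in one step with final 0.05% Triton X-100, 1% formaldehyde and 1 ug/ml Hoechst. Dosing was a single drug or a fixed anchor-drug dose plus five library-drug doses (not always all listed) in √10 steps, and values are medians of duplicate plates imaged at 4×.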

[2] = compound: CC1=CC(=CC=C1)NC2=NC(=CS2)C3=CC=NC=C3 + CC1(C)CCC(c2ccc(Cl)cc2)=C(CN2CCN(c3ccc(C(=O)NS(=O)(=O)c4ccc(N[C@H](CCN5CCOCC5)CSc5ccccc5)c(S(=O)(=O)C(F)(F)F)c4)cc3)CC2)C1 [Navitoclax] (partner 0.5 µM)
Outline: as §1

[3] = compound: CC1=CC(=CC=C1)NC2=NC(=CS2)C3=CC=NC=C3 + COc1cc2c(Oc3ccc(NC(=O)C4(C(=O)Nc5ccc(F)cc5)CC4)cc3F)ccnc2cc1OCCCN1CCOCC1 [Foretinib] (partner 0.25 µM)
Outline: as §1

[4] = compound: CC1=CC(=CC=C1)NC2=NC(=CS2)C3=CC=NC=C3 + Cc1cc(Nc2cc(N3CCN(C)CC3)nc(Sc3ccc(NC(=O)C4CC4)cc3)n2)n[nH]1 [Tozasertib] (partner 0.1 µM)
Outline: as §1

Cell Line: UMC-11
- relative viability ([1]; first compound 0.08 µM): 0.555
- relative viability ([1]; first compound 0.253 µM): 0.737
- relative viability ([1]; first compound 0.8 µM): 0.731
- relative viability ([1]; first compound 2.53 µM): 0.768
- relative viability ([1]; first compound 8 µM): 0.764
- relative viability ([2]; first compound 0.08 µM): 0.281
- relative viability ([2]; first compound 0.253 µM): 0.266
- relative viability ([2]; first compound 0.8 µM): 0.295
- relative viability ([2]; first compound 2.53 µM): 0.348
- relative viability ([2]; first compound 8 µM): 0.478
- relative viability ([3]; first compound 0.08 µM): 1.04
- relative viability ([3]; first compound 0.253 µM): 1.04
- relative viability ([3]; first compound 0.8 µM): 1.02
- relative viability ([3]; first compound 2.53 µM): 1.15
- relative viability ([3]; first compound 8 µM): 1.17
- relative viability ([4]; first compound 0.08 µM): 0.219
- relative viability ([4]; first compound 0.253 µM): 0.206
- relative viability ([4]; first compound 0.8 µM): 0.193
- relative viability ([4]; first compound 2.53 µM): 0.185
- relative viability ([4]; first compound 8 µM): 0.224
